One compound from US12168662B1, “Pyrido[4′,3′:4,5]pyrrolo[2,3-c][2,7]naphthyridines compounds as CK2 inhibitors” (KING FAISAL UNIVERSITY, priority 2023, dated 2024) can be followed below.

Test [1] deals with T1, recombinant human CK2 (RRββ-holoenzyme) (Homo sapiens, UniProt P68400).
T1 construct: purchased Millipore
Briefly: CK2 Kinase Assay (radiometric, [γ-33P] ATP). It counts as biochemical. The following applies: final ATP concentration 15 μM, 10 min at 30° C., eight concentrations; read-out: protein kinase CK2 activity IC50. The procedure:
CK2 Kinase Assay was conducted using the protocol as described in Pierre F. et al; J. Med. Chem. 2011, 54, 635-654. The tested compounds in aqueous solution were added at a volume of 10 μL to a reaction mixture comprising 10 μL of assay dilution buffer (ADB; 20 mM MOPS, pH 7.2, 25 mM β-glycerol phosphate, 5 mM EGTA, 1 mM sodium orthovanadate, and 1 mM dithiothreitol), 10 μL of substrate peptide (RRRDDDSDDD, dissolved in ADB at a concentration of 1 mM), 10 μL of recombinant human CK2 (RRββ-holoenzyme, 25 ng dissolved in ADB; Millipore). Reactions were initiated by the addition of 10 μL of ATP solution (90% 75 mMMgC2, 75 μM ATP (final ATP concentration: 15 μM) dissolved in ADB; 10% [γ-33P] ATP (stock 1 mCi/100 μL; 3000 Ci/mmol (Perkin-Elmer) and maintained for 10 min at 30° C. The reactions were quenched with 100 μL of 0.75% phosphoric acid and then transferred to and filtered through a phosphor cellulose filter plate (Millipore). After washing each well five times with 0.75% phosphoric acid, the plate was dried under vacuum for 5 min and, following the addition of 15 μL of scintillation fluid to each well, the residual radioactivity was measured using a Wallac luminescence counter. The IC50 values were derived from eight concentrations of test inhibitors.

The test system of the next test is H1299 (lung). Nature of the test: In vitro cytotoxic activity assay (MTT). The following applies: Homo sapiens, NCI-H1299; H1299 cells, exposed for 96 hours, 50% inhibition of cell proliferation; read-out: Cytotoxicity activity IC50, H1299 (lung). It counts as cell-based. On the procedure:
(§1) Compounds 1-16 were screened for their in vitro cytotoxic activity utilizing a 3-(4,5-dimethyl-thiazol-2-yl)-2,5-diphenyltetrazolium bromide (MTT) assay against selected cancer human cell lines consisting of PC3 (prostate), HCT116 (colon), A375 (melanoma), H1299 (lung), MIAPaCa-2 (pancreas), HL60 (leukemia), MCF7 (breast), MDA-MB-231 (breast) (T. Mosmann, J. Immunol. Meth., 1983, 65, 55-63). The cells were cultured at 37° C. in RMPI1640 medium supplemented with 10% fetal bovine serum, 50 IU/mL penicillin, and 50 μg/mL streptomycin in a 5% CO2 incubator. All cells were sub-cultured 3 times/week by trypsinisation. Viable cells were seeded and allowed to adhere for 12 hours before a test drug was added in 96-well plates at an initial density of 1.0×10^5 cells/mL. Tumor cell lines were separately exposed to various concentrations of the tested compounds followed by incubation at a temperature of 37° C. during 96 hours inside a medium of fresh RMPI 1640. Cells were subsequently incubated at 37° C. using MTT at 0.5 mg/mL during 4 hours. After removal of supernatant, formazan crystals were dissolved in isopropanol and the optical density was measured at 570 nm. CX-4945 was used as a positive control.

The subject of the next test is PC3 (prostate). Briefly: In vitro cytotoxic activity assay (MTT). It counts as cell-based. Conditions: Homo sapiens, PC-3; PC3 cells, exposed for 96 hours, 50% inhibition of cell proliferation; read-out: Cytotoxicity activity IC50, PC3 (prostate). The procedure: as §1
The test system of a further test is HL60 (leukemia). Nature of the test: In vitro cytotoxic activity assay (MTT). The class given is cell-based. The following applies: Homo sapiens, HL-60; HL60 cells, exposed for 96 hours, 50% inhibition of cell proliferation; read-out: Cytotoxicity activity IC50, HL60 (leukemia). On the procedure: as §1
In another test the test system is MDA-MB-231 (breast). Briefly: In vitro cytotoxic activity assay (MTT). The class given is cell-based. The following applies: Homo sapiens; MDA-MB-231 cells, exposed for 96 hours, 50% inhibition of cell proliferation; read-out: Cytotoxicity activity IC50, MDA-MB-231 (breast). The procedure:
as §1

Another test deals with MIAPaCa-2 (pancreas). Nature of the test: In vitro cytotoxic activity assay (MTT). It counts as cell-based. Conditions: Homo sapiens, MIA PaCa-2; MIAPaCa-2 cells, exposed for 96 hours, 50% inhibition of cell proliferation; read-out: Cytotoxicity activity IC50, MIAPaCa-2 (pancreas). The procedure:
as §1

In another test the test system is HCT116 (colon). Nature of the test: In vitro cytotoxic activity assay (MTT). The class given is cell-based. The following applies: Homo sapiens, HCT-116; HCT116 cells, exposed for 96 hours, 50% inhibition of cell proliferation; read-out: Cytotoxicity activity IC50, HCT116 (colon). The procedure: as §1
For another test, the system named is A375 (melanoma). Nature of the test: In vitro cytotoxic activity assay (MTT). It counts as cell-based. Conditions: Homo sapiens, A-375; A375 cells, exposed for 96 hours, 50% inhibition of cell proliferation; read-out: Cytotoxicity activity IC50, A375 (melanoma). On the procedure:
as §1

The test system of the next test is MCF7 (breast). Briefly: In vitro cytotoxic activity assay (MTT). The class given is cell-based. The following applies: Homo sapiens; MCF7 cells, exposed for 96 hours, 50% inhibition of cell proliferation; read-out: Cytotoxicity activity IC50, MCF7 (breast). The procedure: as §1

The structures appear in SMILES notation.

T1 sequence (P68400 whole entry): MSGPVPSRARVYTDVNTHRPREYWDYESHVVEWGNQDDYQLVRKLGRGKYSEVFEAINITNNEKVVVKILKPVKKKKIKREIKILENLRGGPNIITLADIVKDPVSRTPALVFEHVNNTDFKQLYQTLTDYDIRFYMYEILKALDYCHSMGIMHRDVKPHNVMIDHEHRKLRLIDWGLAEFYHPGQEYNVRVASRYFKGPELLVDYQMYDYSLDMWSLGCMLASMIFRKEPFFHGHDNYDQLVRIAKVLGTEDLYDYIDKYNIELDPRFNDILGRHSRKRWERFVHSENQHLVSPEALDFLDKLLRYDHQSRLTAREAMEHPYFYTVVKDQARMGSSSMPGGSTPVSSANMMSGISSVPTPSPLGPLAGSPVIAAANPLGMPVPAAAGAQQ
T1 sequence (P67870 whole entry partner): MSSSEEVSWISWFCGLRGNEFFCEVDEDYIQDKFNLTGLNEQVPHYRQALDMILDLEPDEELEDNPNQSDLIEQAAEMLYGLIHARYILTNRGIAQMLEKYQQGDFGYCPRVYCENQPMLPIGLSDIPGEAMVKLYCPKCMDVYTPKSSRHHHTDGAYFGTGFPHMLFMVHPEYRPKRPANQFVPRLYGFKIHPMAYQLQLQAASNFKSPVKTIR

For `Clc1cccc(Nc2nc3[nH]c4cnccc4c3c3ccncc23)c1` [Compound 1, N-(3-chlorophenyl)-7H-pyrido[4′,3′:4,5]pyrrolo[2,3-c][2,7]naphthyridin-5-amine], the 50% inhibitory concentration (IC50) in test [1] was found to be 0.334 µM; in the test on H1299 (lung), 1.8 µM; with PC3 (prostate), 1.3 µM; with HL60 (leukemia), 3.3 µM; in the test with MDA-MB-231 (breast) it was 4.4 µM; in the test with MIAPaCa-2 (pancreas) it was 2.4 µM. The 50% inhibitory concentration (IC50) in the test on HCT116 (colon) was 1.5 µM; in the test on A375 (melanoma), 4.7 µM; in the test on MCF7 (breast), 5.2 µM.

One may read the IC50 as the concentration that gives 50% inhibition.
